Here are results for one molecule from PMC6366436 (Journal of Enzyme Inhibition and Medicinal Chemistry, 2019).

The target in one experiment is T1, SazCA (Sulfurihydrogenibium azorense, UniProt C1DTU5).
T1 construct: gene SULAZ_0541
In kind it is biochemical. Conditions: read-out: FAM.

The target in a further experiment is Can2 (Cryptococcus neoformans, UniProt Q3I4V7). In kind it is biochemical. To be noted: read-out: FAM.
A further experiment deals with T2, NcoCAγ (Nostoc commune, UniProt A0A2R5FUA4).
T2 construct: gene NIES4072_30780
In kind it is biochemical. To be noted: TRIS pH 8.3, 0.1 M Na2SO4, 25 °C; 15 min pre-incubation; read-out: FAM.

In another experiment the target is T3, CgNce103 (Nakaseomyces glabratus, UniProt Q6FTL6).
T3 construct: gene NCE103
It is filed as biochemical. Conditions: read-out: FAM.

A further experiment addresses T4, BpsCAβ (Burkholderia pseudomallei, UniProt Q63Y17).
T4 construct: gene BPSL0372
It is filed as biochemical. To be noted: read-out: FAM.

The target in another experiment is T5, PfCA (Plasmodium falciparum, UniProt Q8IHW5).
T5 construct: gene PF3D7_1140000
It is filed as biochemical. To be noted: Hepes pH 7.5, 0.1 M Na2SO4, 25 °C; 15 min pre-incubation; read-out: FAM.

The target of another experiment is T6, TweCAδ (Conticribra weissflogii, UniProt Q5U9J1).
T6 construct: gene ca1
In kind it is biochemical. Conditions: Hepes pH 7.5, 0.1 M Na2SO4, 25 °C; 15 min pre-incubation; read-out: FAM.

The target of the next experiment is T7, MgaCA (Malassezia globosa, UniProt A8Q1N3).
T7 construct: gene MGL_1814
In kind it is biochemical. To be noted: read-out: FAM.

The next experiment addresses T8, VchCAα (Vibrio cholerae, UniProt Q9KMP6).
T8 construct: gene VC_A0274
Conditions: read-out: FAM; Hepes pH 7.5, 0.1 M Na2SO4, 25 °C; 15 min pre-incubation.

For another experiment, the target named is T9, PhaCAγ.
T9 construct: gene PhaCA
To be noted: read-out: FAM; TRIS pH 8.3, 0.1 M Na2SO4, 25 °C; 15 min pre-incubation.

Another experiment has as its target T10, BpsCAγ.
T10 construct: gene BpsCAgamma
To be noted: read-out: FAM.

The next experiment concerns the target CpsCAγ. Conditions: read-out: FAM; TRIS pH 8.3, 0.1 M Na2SO4, 25 °C; 15 min pre-incubation.
The next experiment addresses TcCA. Conditions: read-out: FAM; Hepes pH 7.5, 0.1 M Na2SO4, 25 °C; 15 min pre-incubation.
The next experiment concerns the target T11, VchCAγ (Vibrio cholerae, UniProt Q9KVT1).
T11 construct: gene VC_0058
Conditions: read-out: FAM; TRIS pH 8.3, 0.1 M Na2SO4, 25 °C; 15 min pre-incubation.

For a further experiment, the target named is T12, VchCAβ (Vibrio cholerae, UniProt A0A086SLX8).
T12 construct: gene can
Nature of the experiment: biochemical.

Another experiment addresses Carbonate dehydratase (Sulfurihydrogenibium sp. (strain YO3AOP1), UniProt B2V8E3). Nature of the experiment: biochemical.

Each structure is given as a SMILES string.

T3 sequence (Q6FTL6 entry or part of it): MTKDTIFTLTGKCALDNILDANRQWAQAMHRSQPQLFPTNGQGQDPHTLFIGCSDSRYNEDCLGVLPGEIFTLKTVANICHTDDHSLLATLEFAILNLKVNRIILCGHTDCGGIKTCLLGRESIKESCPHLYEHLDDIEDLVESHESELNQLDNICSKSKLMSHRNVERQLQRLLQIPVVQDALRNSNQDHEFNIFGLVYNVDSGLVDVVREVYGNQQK
CpsCAγ, sequence (UPI00051A3E8B entry or part of it): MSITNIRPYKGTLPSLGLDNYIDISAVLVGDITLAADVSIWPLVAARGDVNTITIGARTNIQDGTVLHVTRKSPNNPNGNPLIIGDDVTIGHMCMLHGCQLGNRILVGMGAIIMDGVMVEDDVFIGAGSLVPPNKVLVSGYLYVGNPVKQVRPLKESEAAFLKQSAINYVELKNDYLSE
T5 sequence (Q8IHW5 entry or part of it): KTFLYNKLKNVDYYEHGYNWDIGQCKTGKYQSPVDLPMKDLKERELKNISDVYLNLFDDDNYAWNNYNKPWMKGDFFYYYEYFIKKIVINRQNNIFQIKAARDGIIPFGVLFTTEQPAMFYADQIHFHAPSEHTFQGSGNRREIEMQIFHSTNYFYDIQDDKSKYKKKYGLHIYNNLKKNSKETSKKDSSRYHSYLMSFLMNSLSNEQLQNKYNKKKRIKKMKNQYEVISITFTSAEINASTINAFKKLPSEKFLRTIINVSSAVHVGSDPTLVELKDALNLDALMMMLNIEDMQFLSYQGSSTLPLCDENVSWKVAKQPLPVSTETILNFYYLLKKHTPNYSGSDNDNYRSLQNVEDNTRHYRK
T6 sequence (Q5U9J1 entry or part of it): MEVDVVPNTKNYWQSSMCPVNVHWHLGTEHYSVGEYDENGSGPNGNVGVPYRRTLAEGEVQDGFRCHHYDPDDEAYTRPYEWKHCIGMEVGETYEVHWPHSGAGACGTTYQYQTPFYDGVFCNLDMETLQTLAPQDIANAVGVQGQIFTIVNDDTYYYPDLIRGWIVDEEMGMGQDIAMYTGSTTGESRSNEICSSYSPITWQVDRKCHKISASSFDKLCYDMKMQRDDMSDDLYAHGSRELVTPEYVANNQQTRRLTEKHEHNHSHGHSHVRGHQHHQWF
T7 sequence (A8Q1N3 entry or part of it): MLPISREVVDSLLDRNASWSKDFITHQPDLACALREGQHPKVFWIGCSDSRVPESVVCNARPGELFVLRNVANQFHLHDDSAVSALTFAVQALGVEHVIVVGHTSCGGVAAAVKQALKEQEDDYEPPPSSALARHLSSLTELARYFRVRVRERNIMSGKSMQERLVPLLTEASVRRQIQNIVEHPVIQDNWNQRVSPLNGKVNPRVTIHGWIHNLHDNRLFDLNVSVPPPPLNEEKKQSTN
T8 sequence (Q9KMP6 21-239 limits assumed): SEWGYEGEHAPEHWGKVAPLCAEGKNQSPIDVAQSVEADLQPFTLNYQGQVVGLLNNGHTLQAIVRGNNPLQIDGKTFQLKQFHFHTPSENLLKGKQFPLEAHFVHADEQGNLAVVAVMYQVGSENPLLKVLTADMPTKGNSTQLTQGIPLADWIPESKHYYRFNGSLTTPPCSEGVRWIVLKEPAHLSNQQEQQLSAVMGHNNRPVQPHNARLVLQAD
T12 sequence (A0A086SLX8 1-222): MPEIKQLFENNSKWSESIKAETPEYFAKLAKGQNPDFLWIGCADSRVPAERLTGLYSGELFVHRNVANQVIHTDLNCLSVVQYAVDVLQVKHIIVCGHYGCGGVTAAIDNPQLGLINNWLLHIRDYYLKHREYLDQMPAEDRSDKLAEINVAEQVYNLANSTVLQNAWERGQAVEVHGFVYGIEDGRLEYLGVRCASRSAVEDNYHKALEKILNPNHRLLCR
T2 sequence (A0A2R5FUA4 entry or part of it): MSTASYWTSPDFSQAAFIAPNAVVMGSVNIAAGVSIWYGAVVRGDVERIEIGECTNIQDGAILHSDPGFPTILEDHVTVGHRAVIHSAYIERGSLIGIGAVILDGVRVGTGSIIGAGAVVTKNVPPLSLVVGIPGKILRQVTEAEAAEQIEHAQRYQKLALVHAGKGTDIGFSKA
T11 sequence (Q9KVT1 1-184): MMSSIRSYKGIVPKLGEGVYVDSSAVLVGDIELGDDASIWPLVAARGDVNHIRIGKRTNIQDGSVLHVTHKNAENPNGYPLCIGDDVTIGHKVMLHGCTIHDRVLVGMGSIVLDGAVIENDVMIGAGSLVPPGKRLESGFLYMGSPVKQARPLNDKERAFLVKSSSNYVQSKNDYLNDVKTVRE
T4 sequence (Q63Y17 1-256): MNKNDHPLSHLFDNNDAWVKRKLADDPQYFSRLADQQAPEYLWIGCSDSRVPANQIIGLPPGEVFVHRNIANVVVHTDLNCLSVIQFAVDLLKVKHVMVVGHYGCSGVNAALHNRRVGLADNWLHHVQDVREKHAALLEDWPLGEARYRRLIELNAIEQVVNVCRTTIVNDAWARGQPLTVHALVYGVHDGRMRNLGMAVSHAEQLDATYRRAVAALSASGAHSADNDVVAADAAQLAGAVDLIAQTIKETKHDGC
Can2, sequence (Q3I4V7 entry or part of it): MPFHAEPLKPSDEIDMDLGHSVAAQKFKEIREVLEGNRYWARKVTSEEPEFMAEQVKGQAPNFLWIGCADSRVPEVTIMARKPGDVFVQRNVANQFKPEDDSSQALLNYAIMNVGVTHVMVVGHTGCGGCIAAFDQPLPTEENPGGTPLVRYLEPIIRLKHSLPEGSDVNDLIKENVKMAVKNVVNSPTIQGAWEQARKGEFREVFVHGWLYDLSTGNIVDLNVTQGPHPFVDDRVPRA
T1 sequence (C1DTU5 entry or part of it): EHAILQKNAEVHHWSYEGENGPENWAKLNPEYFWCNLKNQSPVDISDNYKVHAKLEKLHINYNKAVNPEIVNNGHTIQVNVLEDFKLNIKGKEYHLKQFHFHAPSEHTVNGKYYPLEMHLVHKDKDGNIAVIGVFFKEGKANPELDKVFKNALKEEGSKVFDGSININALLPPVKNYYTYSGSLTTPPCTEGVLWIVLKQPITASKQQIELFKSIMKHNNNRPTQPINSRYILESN

For the molecule `NC(N)=Nc1nc(CSCCC(N)=NS(N)(=O)=O)cs1` [FAM, Famotidine], the Ki on SazCA was determined as 124 nM; on Can2, 107 nM; at NcoCAγ, 1690 nM; on CgNce103, 13.6 nM; at BpsCAβ, 8270 nM; at PfCA, 142 nM. Moreover, the Ki is 408 nM on TweCAδ; 42100 nM at MgaCA; 72.3 nM at VchCAα; 66.8 nM at PhaCAγ; 8290 nM on BpsCAγ; 89 nM on CpsCAγ. Also, the Ki on TcCA worked out at 5710 nM; at VchCAγ it was 5320 nM; on VchCAβ it was 83900 nM; at Carbonate dehydratase it was 230 nM.
